Laboratory results taken from patent publication US20220310273A1, “SYSTEM FOR EVALUATING SENSITIVITY TO ANTI-CANCER AGENT AND A COMPUTER READABLE MEDIUM STORING PROGRAMS EXECUTING AN EVALUATING METHOD” (MBD Co., Ltd., priority 2021, published 2022).

System: cancer cells of biological individuals diagnosed with breast cancer
Experiment: evaluation of sensitivity to doxorubicin (DOX) in patient tissues, using cell colony growth rate and IC50 value
Settings: patient tissue #2 (breast cancer)

## COc1cccc2c1C(=O)c1c(O)c3c(c(O)c1C2=O)C[C@@](O)(C(=O)CO)C[C@@H]3O[C@H]1C[C@H](N)[C@H](O)[C@H](C)O1 [doxorubicin]
  IC50 value: low
